Test results taken from patent US20060057228A1, “Weight loss composition” (Pure World Botanicals, Inc., priority 2004, published 2006).

System: undifferentiated 3T3-L1 cell
Experiment: Anti-adipogenesis assay on undifferentiated 3T3-L1 cell
Assay type: cell-based
Text: The major component of weight gain is the increase and accumulation of fat through adipogenesis process. Adipogenesis is characterized by increase of both fat cell number and fat cell size. The weight loss composition of the present invention, banaba extracts, and some active components which were isolated from banaba have shown strong activity through an inhibitory activity on adipocyte differentiation to block fat cell synthesis to achieve the effect on bodyweight control and body fat loss. The following is the list of the results of anti-adipogenesis assay (Table 4).

[1] = concentration level 0.002% (w/w)
[2] = concentration level 0.004% (w/w)
[3] = concentration level 0.05% (w/w)
[4] = concentration level 0.10% (w/w)

Row | Compound | Percent of inhibitory [1] [%] | Percent of inhibitory [2] [%] | Percent of inhibitory [3] [%] | Percent of inhibitory [4] [%]
1 | O=C(O[C@@H]1COC(=O)c2cc(O)c(O)c(O)c2-c2c(cc(O)c(O)c2O)C(=O)O[C@H]1[C@@H]1OC(=O)c2cc(O)c(O)c(O)c2-c2c(O)c(O)c(O)c3c2C(=O)O[C@H]1[C@@H]3O)c1cc(O)c(O)c(O)c1 [Casuarinin] | 100 | 100 | 100 | 100
2 | Banasulin | 96 | 79 | 99 | 
3 | COc1c(O)cc2c(=O)oc3c(O)c(O)cc4c(=O)oc1c2c34 [3-O-methylellegic acid] | 97 | 98 |  | 
4 | Lagerstroemin | 100 | 100 | 100 | 100
